Active and inactive are the calls of the source. No cut-off for these calls is given here.
Key:
Mus musculus [1] = test: Analgesic activity against Swiss albino mice dosed at 200 mg/kg and activity calculated as percentage maximum possible effect (% MPE); format: functional
Rattus norvegicus [2] = test: Antiinflammatory activity against Albino rat dosed at 400 mg/kg; format: functional
Mus musculus [3] = test: Analgesic activity against Swiss albino mice dosed at 300 mg/kg and activity calculated as percentage maximum possible effect (% MPE); format: functional
Mus musculus [4] = test: Analgesic activity against Swiss albino mice dosed at 400 mg/kg and activity calculated as percentage maximum possible effect (% MPE); format: functional
Rattus norvegicus [5] = test: Antiinflammatory activity against Albino rat dosed at 300 mg/kg; format: functional
Rattus norvegicus [6] = test: Antiinflammatory activity against Albino rat dosed at 200 mg/kg; format: functional
Rattus norvegicus [7] = test: Antiinflammatory activity against Albino rat dosed at 400 mg/kg (3h); format: functional
Rattus norvegicus [8] = test: Antiinflammatory activity against Albino rat dosed at 300 mg/kg (3h); format: functional
Rattus norvegicus [9] = test: Antiinflammatory activity against Albino rat dosed at 200 mg/kg (3h); format: functional
Mus musculus [10] = test: Analgesic activity against Swiss albino mice dosed at 100 mg/kg and activity calculated as percentage maximum possible effect (% MPE); No activity; format: functional, organism-based; design: dose 100 mg/kg
Rattus norvegicus [11] = test: (§1) Antiinflammatory activity against Albino rat dosed at 100 mg/kg (3h); format: functional
Rattus norvegicus [12] = test: as §1; format: functional, organism-based; design: dose 100 mg/kg
Mus musculus [13] = test: Analgesic activity against Swiss albino mice dosed at and activity calculated as percentage maximum possible effect (% MPE); format: functional

With `Cc1ccc2c(c1)oc(=O)c1cnc3c4ccccc4oc3c12` the MPE (Mus musculus [1]) was 1.3%, the inhibition in vivo at 400 mg/kg (Rattus norvegicus [2]) was 18.3% and the MPE (Mus musculus [3]) was 22.9%. For the same compound, the MPE (Mus musculus [4]) was 10.8%, the inhibition in vivo at 300 mg/kg (Rattus norvegicus [5]) was 31.4% and the inhibition in vivo at 200 mg/kg (Rattus norvegicus [6]) was 24.6%.
`Cc1ccc2oc(=O)c3cnc4c5ccccc5oc4c3c2c1` showed an MPE (Mus musculus [1]) of 20.9%, an inhibition in vivo at 400 mg/kg (Rattus norvegicus [7]) of 67.2% and an inhibition in vivo at 300 mg/kg (Rattus norvegicus [8]) of 96.3%. It also gave an MPE (Mus musculus [3]) of 32.9%, an MPE (Mus musculus [4]) of 20.9% and an inhibition in vivo at 200 mg/kg (Rattus norvegicus [9]) of 89%.
For `O=c1oc2cc(Cl)ccc2c2c1cnc1c3ccccc3oc12`, the MPE (Mus musculus [1]) was 1.8%, the inhibition in vivo at 400 mg/kg (Rattus norvegicus [7]) was 29.4% and the inhibition in vivo at 300 mg/kg (Rattus norvegicus [8]) was 26.3%. For the same compound, the MPE (Mus musculus [3]) was 3.4%, the MPE (Mus musculus [4]) was 6.8% and the inhibition in vivo at 200 mg/kg (Rattus norvegicus [9]) was 19.2%.
With `Cc1nc2c3ccccc3oc2c2c1c(=O)oc1cc(Cl)ccc12` the MPE (Mus musculus [1]) was 4.7%, the inhibition in vivo at 400 mg/kg (Rattus norvegicus [7]) was 27.4% and the inhibition in vivo at 300 mg/kg (Rattus norvegicus [8]) was 25.9%. For the same compound, the MPE (Mus musculus [3]) was 7.3%, the MPE (Mus musculus [4]) was 9.2% and the inhibition in vivo at 200 mg/kg (Rattus norvegicus [9]) was 21.6%.
Work on `CCc1nc2c3ccccc3oc2c2c1c(=O)oc1cc(OC)ccc12` yielded an MPE (Mus musculus [1]) of 24.3%, an inhibition in vivo at 400 mg/kg (Rattus norvegicus [7]) of 67.2% and an inhibition in vivo at 300 mg/kg (Rattus norvegicus [8]) of 78.1%. For the same compound, the MPE (Mus musculus [3]) was 24.4%, the MPE (Mus musculus [4]) was 39.5% and the inhibition in vivo at 200 mg/kg (Rattus norvegicus [9]) was 35.7%.
With `CCc1nc2c3ccccc3oc2c2c1c(=O)oc1cc(C)ccc12` the MPE (Mus musculus [1]) was 2.4%, the inhibition in vivo at 400 mg/kg (Rattus norvegicus [7]) was 46.5% and the inhibition in vivo at 300 mg/kg (Rattus norvegicus [8]) was 41.7%. It also gave an MPE (Mus musculus [3]) of 4.9%, an MPE (Mus musculus [4]) of 7.1% and an inhibition in vivo at 200 mg/kg (Rattus norvegicus [9]) of 35.4%.
`O=C(O)Cc1ccccc1Nc1c(Cl)cccc1Cl` [DICLOFENAC SODIUM] was tested, and the MPE (Mus musculus [10]) was “inactive” and the inhibition in vivo at 100 mg/kg (Rattus norvegicus [11]) was 94.5%.
`CC(=O)Oc1ccccc1C(=O)O` [ASPIRIN] was tested, and the inhibition (Rattus norvegicus [12]) was “inactive” and the MPE (Mus musculus [13]) was 74.9%.
Compound `Cc1ccc2c(c1)oc(=O)c1c(C)nc3c4ccccc4oc3c12` has an MPE (Mus musculus [1]) of 22.9%, an inhibition in vivo at 400 mg/kg (Rattus norvegicus [7]) of 97% and an inhibition in vivo at 300 mg/kg (Rattus norvegicus [8]) of 88.7%. It also gave an MPE (Mus musculus [3]) of 24.9%, an MPE (Mus musculus [4]) of 18.3% and an inhibition in vivo at 200 mg/kg (Rattus norvegicus [9]) of 80.7%.

From ChEMBL document CHEMBL1142757, “Synthesis and biological evaluation of novel angularly fused polycyclic coumarins” (2005)
